Test results reported in US11999749B2, “Synthesis of a bis-mesylate salt of 4-amino-N-(1-((3-chloro-2-fluorophenyl)amino)-6-methylisoquinolin-5-yl)thieno[3,2-d]pyrimidine-7-carboxamide and intermediates thereto” (Genentech, Inc., priority 2021, dated 2024).

Tests used:
[1] = hygroscopicity of the salt forms; format: physicochemical; conditions: relative to the bis-HCl salt
[2] = solubility screen of 1b in organic solvents; format: physicochemical
Source text: This is notwithstanding the previously established solubility of 1b in NMP; that solvent should not be used due to its toxicity and the allowed limit of ˜500 ppm in the final pharmaceutical product. The limit for NMP is considerably lower than the 5,000 ppm permitted for DMSO. One of the reasons for relying on the recrystallization step is to remove an excess of NMP from the final product.
The selection of an appropriate anti-solvent is based at least in part on good miscibility with the other solvent(s) being used, low solubility of the solid form (to give desired form), and the ability to effectively remove impurities. To ensure the best control and purge of inorganic impurities in the crude product, water was selected as the anti-solvent. To this end, a more detailed solubility study of the crude material in DMSO/water mixtures at 10, 70, 75 and 80° C. indicated a steep dependence of the solubility of 1b on water content, with temperature having a smaller impact on recovery yield.

hygroscopicity [1]: lower hygroscopicity
solubility ([2]; in DMSO): sufficient solubility
solubility ([2]; in most organic solvents, initial solubility screen): exceptionally low solubility
SMILES: Cc1ccc2c(Nc3cccc(Cl)c3F)nccc2c1NC(=O)c1csc2c(N)ncnc12 [Compound 1b, 4-amino-N-(1-((3-chloro-2-fluorophenyl)amino)-6-methylisoquinolin-5-yl)thieno[3,2-d]pyrimidine-7-carboxamide bis-mesylate]
